Measurements: the supplement of paper PMC11061612

What was measured:
Experiment in all cases: Bliss excess, mean over the matrix (fraction); higher = more synergy
[1] = tested on: KMRC-20 (Kidney Carcinoma)
How it was run: (§1)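 Bliss excess equals the observed combination effect minus the expected value EA + EB − EA·EB, where EA and EB are the effects of each agent alone. Combination Emax is the second-highest inhibition within the matrix. Inhibition was scaled from CellTiter-Glo 2.0 luminescence, with 0 set by vehicle wells and 1 by blank wells, after 72 hours of two-drug dosing of cells plated in 1536-well plates.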

[2] = tested on: LNZTA3WT4 (Low Grade Glioma)
How it was run: as §1

NCI-H2722 (Mesothelioma) = tested on: NCI-H2722 (Mesothelioma)
How it was run: as §1

[3] = tested on: HH (T-Cell Non-Hodgkin's Lymphoma)
How it was run: as §1

[4] = tested on: NUGC-4 (Gastric Carcinoma)
How it was run: as §1

[5] = tested on: ALL-PO (B-Lymphoblastic Leukemia)
How it was run: as §1

[6] = tested on: LCLC-97TM1 (Non-Small Cell Lung Carcinoma)
How it was run: as §1

[7] = tested on: Hs-746T (Gastric Carcinoma)
How it was run: as §1

[8] = tested on: OVCAR-5 (Ovarian Carcinoma)
How it was run: as §1

[9] = tested on: HeLa (Cervical Carcinoma)
How it was run: as §1

[10] = tested on: HuH-7 (Hepatocellular Carcinoma)
How it was run: as §1

[11] = tested on: HuCCT1 (Biliary Tract Carcinoma)
How it was run: as §1

BPH-1 (Non-Cancerous) = tested on: BPH-1 (Non-Cancerous)
How it was run: as §1

[12] = tested on: SAS (Oral Cavity Carcinoma)
How it was run: as §1

[13] = tested on: WSU-NHL (B-Cell Non-Hodgkin's Lymphoma)
How it was run: as §1

[14] = tested on: TGBC1TKB (Biliary Tract Carcinoma)
How it was run: as §1

LOXIMVI (Melanoma) = tested on: LOXIMVI (Melanoma)
How it was run: as §1

[15] = tested on: L-428 (Hodgkin's Lymphoma)
How it was run: as §1

BE2-M17 (Neuroblastoma) = tested on: BE2-M17 (Neuroblastoma)
How it was run: as §1

[16] = tested on: FTC-133 (Thyroid Gland Carcinoma)
How it was run: as §1

## CN(C)CCCOc1ccc(-c2ccc3ncc4c(c3c2)n(C2CCOCC2)c(=O)n4C)cn1 [AZD0156] + C=CCn1c(=O)c2cnc(Nc3ccc(N4CCN(C)CC4)cc3)nc2n1-c1cccc(C(C)(C)O)n1 [AZD1775] (first compound max 1 µM, partner max 1 µM)
[1]
  Bliss excess: -0.0707
[2]
  Bliss excess: -0.0561
NCI-H2722 (Mesothelioma)
  Bliss excess: -0.0363
[3]
  Bliss excess: -0.0689
[4]
  Bliss excess: -0.055
[5]
  Bliss excess: 0.0128
[6]
  Bliss excess: -0.0179
[7]
  Bliss excess: -0.0305
[8]
  Bliss excess: -0.0043
[9]
  Bliss excess: -0.0364
[10]
  Bliss excess: -0.0497
[11]
  Bliss excess: -0.0382
BPH-1 (Non-Cancerous)
  Bliss excess: 0.0475
[12]
  Bliss excess: -0.0742
[13]
  Bliss excess: -0.002
[14]
  Bliss excess: -0.0734
LOXIMVI (Melanoma)
  Bliss excess: 0.0604
[15]
  Bliss excess: 0.0106
BE2-M17 (Neuroblastoma)
  Bliss excess: -0.0429
[16]
  Bliss excess: -0.0416

## CN(C)CCCOc1ccc(-c2ccc3ncc4c(c3c2)n(C2CCOCC2)c(=O)n4C)cn1 [AZD0156] + CCN(CCO)CCCOc1ccc2c(Nc3cc(CC(=O)Nc4cccc(F)c4)[nH]n3)ncnc2c1 [AZD2811] (first compound max 1 µM, 7x7, partner max 1 µM)
[1]
  Bliss excess: -0.0499
[2]
  Bliss excess: -0.0162
NCI-H2722 (Mesothelioma)
  Bliss excess: -0.0226
[3]
  Bliss excess: -0.0412
[4]
  Bliss excess: -0.0387
[5]
  Bliss excess: -0.024
[6]
  Bliss excess: 0.0765
[7]
  Bliss excess: -0.0747
[8]
  Bliss excess: -0.0281
[9]
  Bliss excess: -0.0136
[10]
  Bliss excess: -0.0381
[11]
  Bliss excess: -0.0274
BPH-1 (Non-Cancerous)
  Bliss excess: 0.0625
[12]
  Bliss excess: -0.0391
[13]
  Bliss excess: -0.005
[14]
  Bliss excess: -0.043
LOXIMVI (Melanoma)
  Bliss excess: -0.0125
[15]
  Bliss excess: 0.0314
BE2-M17 (Neuroblastoma)
  Bliss excess: 0.0535
[16]
  Bliss excess: -0.0214

## CN(C)CCCOc1ccc(-c2ccc3ncc4c(c3c2)n(C2CCOCC2)c(=O)n4C)cn1 [AZD0156] + C[C@@H]1COCCN1C2=NC(=NC(=C2)C3(CC3)[S@](=N)(=O)C)C4=C5C=CNC5=NC=C4 [AZD6738] (first compound max 1 µM, 7x7, partner max 10 µM)
[1]
  Bliss excess: -0.031
[2]
  Bliss excess: -0.0016
NCI-H2722 (Mesothelioma)
  Bliss excess: -0.0384
[3]
  Bliss excess: 0.0175
[4]
  Bliss excess: 0.0101
[5]
  Bliss excess: 0.0402
[6]
  Bliss excess: -0.0039
[7]
  Bliss excess: -0.0211
[8]
  Bliss excess: -0.001
[9]
  Bliss excess: -0.0217
[10]
  Bliss excess: 0.0196
[11]
  Bliss excess: 0.0297
BPH-1 (Non-Cancerous)
  Bliss excess: -0.0092
[12]
  Bliss excess: -0.0363
[13]
  Bliss excess: -0.0252
[14]
  Bliss excess: -0.0227
LOXIMVI (Melanoma)
  Bliss excess: 0.0721
[15]
  Bliss excess: 0.0132
BE2-M17 (Neuroblastoma)
  Bliss excess: 0.0914
[16]
  Bliss excess: -0.0043

## C=CCn1c(=O)c2cnc(Nc3ccc(N4CCN(C)CC4)cc3)nc2n1-c1cccc(C(C)(C)O)n1 [AZD1775] + C[C@@H]1COCCN1C2=NC(=NC(=C2)C3(CC3)[S@](=N)(=O)C)C4=C5C=CNC5=NC=C4 [AZD6738] (first compound max 1 µM, partner max 10 µM)
[1]
  Bliss excess: 0.0174
[2]
  Bliss excess: 0.0076
NCI-H2722 (Mesothelioma)
  Bliss excess: -0.0029
[3]
  Bliss excess: 0.0379
[4]
  Bliss excess: -0.0701
[5]
  Bliss excess: 0.0624
[6]
  Bliss excess: -0.0323
[7]
  Bliss excess: -0.0095
[8]
  Bliss excess: 0.0146
[9]
  Bliss excess: 0.0883
[10]
  Bliss excess: 0.0027
[11]
  Bliss excess: -0.0205
BPH-1 (Non-Cancerous)
  Bliss excess: 0.0614
[12]
  Bliss excess: 0.0138
[13]
  Bliss excess: 0.0013
[14]
  Bliss excess: 0.0388
LOXIMVI (Melanoma)
  Bliss excess: -0.0609
[15]
  Bliss excess: 0.0246
BE2-M17 (Neuroblastoma)
  Bliss excess: 0.103
[16]
  Bliss excess: 0.0508

## CN(CCO)CC[C@H](CSc1ccccc1)Nc1ccc(S(=O)(=O)NC(=O)c2ccc(N3CCC([C@@H](O)c4ccccc4-c4ccc(Cl)cc4)CC3)cc2)cc1S(=O)(=O)C(F)(F)F [AZD4320] + C=CCn1c(=O)c2cnc(Nc3ccc(N4CCN(C)CC4)cc3)nc2n1-c1cccc(C(C)(C)O)n1 [AZD1775] (first compound max 1 µM, partner max 1 µM)
[1]
  Bliss excess: 0.0331
[2]
  Bliss excess: -0.0201
NCI-H2722 (Mesothelioma)
  Bliss excess: 0.042
[3]
  Bliss excess: 0.0911
[4]
  Bliss excess: -0.0217
[5]
  Bliss excess: 0.0631
[6]
  Bliss excess: 0.0015
[7]
  Bliss excess: -0.0054
[9]
  Bliss excess: -0.0523
[10]
  Bliss excess: 0.0346
[11]
  Bliss excess: -0.0514
BPH-1 (Non-Cancerous)
  Bliss excess: 0.0378
[12]
  Bliss excess: 0.05
[13]
  Bliss excess: -0.0242
[14]
  Bliss excess: 0.0352
LOXIMVI (Melanoma)
  Bliss excess: 0.0203
[15]
  Bliss excess: 0.0961
BE2-M17 (Neuroblastoma)
  Bliss excess: 0.0199
[16]
  Bliss excess: 0.0341

## Cc1c2c(nn1C)CSCc1cc(n(C)n1)CSc1cc(c3ccccc3c1)OCCCc1c(C(=O)O)n(C)c3c-2c(Cl)ccc13 [AZD5991] + CC1(C)CCC(CN2CCN(c3ccc(C(=O)NS(=O)(=O)c4ccc(NCC5CCOCC5)c([N+](=O)[O-])c4)c(Oc4cnc5[nH]ccc5c4)c3)CC2)=C(c2ccc(Cl)cc2)C1 [Venetoclax] (first compound max 1 µM, 7x7, partner max 1 µM)
[1]
  Bliss excess: -0.0206
[2]
  Bliss excess: 0.0364
NCI-H2722 (Mesothelioma)
  Bliss excess: -0.0733
[3]
  Bliss excess: 0.0016
[4]
  Bliss excess: -0.0621
[6]
  Bliss excess: -0.023
[7]
  Bliss excess: -0.0882
[8]
  Bliss excess: -0.0365
[9]
  Bliss excess: 0.0343
[10]
  Bliss excess: -0.0272
[11]
  Bliss excess: -0.0557
BPH-1 (Non-Cancerous)
  Bliss excess: -0.0148
[12]
  Bliss excess: 0.0098
[13]
  Bliss excess: 0.0602
[14]
  Bliss excess: -0.0252
LOXIMVI (Melanoma)
  Bliss excess: -0.0182
[15]
  Bliss excess: -0.0151
BE2-M17 (Neuroblastoma)
  Bliss excess: 0.0276
[16]
  Bliss excess: -0.0233

## Cc1c2c(nn1C)CSCc1cc(n(C)n1)CSc1cc(c3ccccc3c1)OCCCc1c(C(=O)O)n(C)c3c-2c(Cl)ccc13 [AZD5991] + CCN(CCO)CCCOc1ccc2c(Nc3cc(CC(=O)Nc4cccc(F)c4)[nH]n3)ncnc2c1 [AZD2811] (first compound max 1 µM, 7x7, partner max 1 µM)
[1]
  Bliss excess: 0.0023
[2]
  Bliss excess: 0.038
NCI-H2722 (Mesothelioma)
  Bliss excess: -0.0407
[3]
  Bliss excess: -0.049
[5]
  Bliss excess: -0.0077
[6]
  Bliss excess: 0.0885
[7]
  Bliss excess: -0.0477
[8]
  Bliss excess: -0.0434
[9]
  Bliss excess: 0.0319
[10]
  Bliss excess: 0.0109
[11]
  Bliss excess: 0.0128
BPH-1 (Non-Cancerous)
  Bliss excess: 0.0077
[12]
  Bliss excess: -0.0092
[13]
  Bliss excess: -0.0206
[14]
  Bliss excess: -0.0141
LOXIMVI (Melanoma)
  Bliss excess: 0.0212
[15]
  Bliss excess: 0.0712
BE2-M17 (Neuroblastoma)
  Bliss excess: 0.0668
[16]
  Bliss excess: 0.0074
